Here are results for six compounds from ChEMBL document CHEMBL4825741, “Novel Histone Acetyltransferase (HAT) Inhibitors for Treating Diseases” (ACS Med Chem Lett, 2021).

Molecules are shown by their SMILES.

The nature of the experiment: Inhibition of p300/CBP HAT (unknown origin) by scintillation proximity assay. Also noted: species or system Homo sapiens. (Scintillation proximity formats need no separation of bound from free tracer.)
For `CC(CN[C@H](C(=O)Nc1ccc(OC2CCN(C(=O)C3CC3)CC2)cn1)c1ccccc1)c1ccc(C#N)cc1` (stereo partly specified), the half-maximal inhibitory concentration (IC50) is 26.7 nM. Turning to `CN1CCC(Oc2ccc(NC(=O)[C@H](NCCc3ccc(Cl)cc3)c3ccccc3)nc2)CC1`, the half-inhibitory concentration (IC50) is 26.6 nM. `Cn1cc(COc2ccc(NC(=O)[C@@H](NCCc3ccc(Cl)cc3)c3ccccc3)nc2)cn1` came in with a half-inhibitory concentration (IC50) of 16.8 nM. In the case of `CC(=O)N1CC(Oc2ccc(NC(=O)[C@@H](NC[C@@H](C)c3ccc(C#N)cc3)c3ccccc3)nc2)C1`, the concentration for half-maximal inhibition (IC50) is 14 nM. Compound `CC(=O)N1CC(Oc2ccc(NC(=O)[C@H](NCC(C)c3ccc(C#N)cc3)c3cccc(F)c3)nc2)C1` (stereo partly specified) yielded an IC50 of 23.3 nM. Turning to `CC(=O)N1CC(Oc2ccc(NC(=O)[C@H](NC[C@@H](C)c3ccc(C#N)cc3)c3ccccc3)nc2)C1`, the IC50 amounted to 21.2 nM.

The IC50 is the midpoint of a concentration-inhibition curve. Low values mean greater potency in that assay, high ones weaker potency in that assay.
